pEC50: −log10 of the molar value. Read-outs that look alike come from different tables or passages of the source.
Columns and labels:
Assay in all cases: cell-based
M1 muscarinic receptor = biological target: T1, M1 muscarinic receptor (Homo sapiens, UniProt P11229); details: for Emax: read-out: M1 Efficacy
T1 construct: expressed in transfected cells; host or cells: CHO (M1-CHO)
T1 sequence (P11229 1-460): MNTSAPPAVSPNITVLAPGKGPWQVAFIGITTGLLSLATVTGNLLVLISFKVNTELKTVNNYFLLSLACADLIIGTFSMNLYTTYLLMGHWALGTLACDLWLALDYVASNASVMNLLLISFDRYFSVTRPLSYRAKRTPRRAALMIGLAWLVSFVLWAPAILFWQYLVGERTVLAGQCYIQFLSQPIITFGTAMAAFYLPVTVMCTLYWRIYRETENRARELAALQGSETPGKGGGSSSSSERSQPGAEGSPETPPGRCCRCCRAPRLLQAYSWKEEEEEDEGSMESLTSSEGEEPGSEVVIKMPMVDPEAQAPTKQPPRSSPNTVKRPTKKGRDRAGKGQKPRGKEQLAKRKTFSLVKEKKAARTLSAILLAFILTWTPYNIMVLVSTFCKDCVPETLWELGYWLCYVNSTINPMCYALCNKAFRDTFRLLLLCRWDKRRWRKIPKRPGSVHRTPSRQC

M2 muscarinic receptor = biological target: T2, M2 muscarinic receptor (Homo sapiens, UniProt P08172); details: for Emax: read-out: M2 Efficacy
T2 construct: expressed in transfected cells; host or cells: CHO (M2-CHO)
T2 sequence (P08172 1-466): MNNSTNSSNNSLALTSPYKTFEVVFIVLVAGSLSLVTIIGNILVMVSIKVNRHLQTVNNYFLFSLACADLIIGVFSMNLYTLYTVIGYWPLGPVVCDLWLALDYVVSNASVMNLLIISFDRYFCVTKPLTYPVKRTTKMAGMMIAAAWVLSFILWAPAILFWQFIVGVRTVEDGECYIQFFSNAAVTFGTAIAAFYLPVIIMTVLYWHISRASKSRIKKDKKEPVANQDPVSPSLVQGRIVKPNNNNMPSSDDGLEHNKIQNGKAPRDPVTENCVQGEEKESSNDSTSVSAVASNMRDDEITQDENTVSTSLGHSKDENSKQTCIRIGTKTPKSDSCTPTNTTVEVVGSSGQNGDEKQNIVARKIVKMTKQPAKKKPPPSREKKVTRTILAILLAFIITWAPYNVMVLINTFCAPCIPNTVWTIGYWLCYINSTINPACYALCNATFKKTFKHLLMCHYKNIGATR

M3 muscarinic receptor = biological target: T3, M3 muscarinic receptor (Homo sapiens, UniProt P20309); details: for Emax: read-out: M3 Efficacy
T3 construct: expressed in transfected cells; host or cells: CHO (M3-CHO)

M4 muscarinic receptor = biological target: T4, M4 muscarinic receptor (Homo sapiens, UniProt P08173); details: for Emax: read-out: M4 Efficacy
T4 construct: expressed in transfected cells; host or cells: CHO (M4-CHO)
T4 sequence (P08173 1-479): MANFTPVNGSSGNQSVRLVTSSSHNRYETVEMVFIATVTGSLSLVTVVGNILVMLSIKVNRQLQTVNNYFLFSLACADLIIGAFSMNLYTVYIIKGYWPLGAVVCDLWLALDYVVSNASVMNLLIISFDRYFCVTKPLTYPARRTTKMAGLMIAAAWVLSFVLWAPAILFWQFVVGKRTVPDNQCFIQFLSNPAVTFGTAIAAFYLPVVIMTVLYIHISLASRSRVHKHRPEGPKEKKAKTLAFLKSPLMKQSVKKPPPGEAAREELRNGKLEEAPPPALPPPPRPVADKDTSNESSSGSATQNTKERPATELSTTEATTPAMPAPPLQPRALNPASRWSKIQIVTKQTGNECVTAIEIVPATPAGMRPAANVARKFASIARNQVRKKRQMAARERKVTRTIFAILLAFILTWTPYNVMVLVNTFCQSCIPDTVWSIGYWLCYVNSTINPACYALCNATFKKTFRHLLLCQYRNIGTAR

T3 sequence (P20309 whole entry): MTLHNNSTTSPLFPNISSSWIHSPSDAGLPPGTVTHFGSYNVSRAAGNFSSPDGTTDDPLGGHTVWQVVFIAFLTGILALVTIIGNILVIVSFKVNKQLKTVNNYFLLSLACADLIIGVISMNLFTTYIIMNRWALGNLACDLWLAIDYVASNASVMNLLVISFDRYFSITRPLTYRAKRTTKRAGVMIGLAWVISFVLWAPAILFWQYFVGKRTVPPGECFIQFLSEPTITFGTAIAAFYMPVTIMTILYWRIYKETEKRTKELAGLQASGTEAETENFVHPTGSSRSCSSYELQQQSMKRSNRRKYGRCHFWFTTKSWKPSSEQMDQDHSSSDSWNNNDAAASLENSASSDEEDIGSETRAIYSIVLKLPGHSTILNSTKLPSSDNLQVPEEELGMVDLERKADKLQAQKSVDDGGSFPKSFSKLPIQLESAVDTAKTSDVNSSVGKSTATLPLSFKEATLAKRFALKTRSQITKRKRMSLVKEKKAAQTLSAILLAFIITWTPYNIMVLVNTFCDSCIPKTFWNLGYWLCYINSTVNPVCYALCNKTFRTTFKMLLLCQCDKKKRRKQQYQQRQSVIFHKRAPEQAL

Row | Compound | pEC50 (M1 muscarinic receptor) | Emax (M1 muscarinic receptor) | pEC50 (M2 muscarinic receptor) | Emax (M2 muscarinic receptor) | pEC50 (M3 muscarinic receptor) | Emax (M3 muscarinic receptor) | pEC50 (M4 muscarinic receptor) | Emax (M4 muscarinic receptor) | pEC50 (M1 muscarinic receptor; read-out: M1 Activity) | pEC50 (M2 muscarinic receptor; read-out: M2 Activity) | pEC50 (M3 muscarinic receptor; read-out: M3 Activity) | pEC50 (M4 muscarinic receptor; read-out: M4 Activity) | M1 Efficacy (M1 muscarinic receptor) | M2 Efficacy (M2 muscarinic receptor) | M3 Efficacy (M3 muscarinic receptor) | M4 Efficacy (M4 muscarinic receptor)
1 | CCOC(=O)N1C2CCC1CC(N1CCC(N(CC)c3ccccc3)CC1)C2 (stereo not drawn) [Compound 37, 3-[4-(ethyl-phenyl-amino)-piperidin-1-yl]-8-azabicyclo[3.2.1]octane-8-carboxylic acid ethyl ester] | > 5.70 | 25 to 100% | < 5.30 | < 25% | < 5.30 | < 25% | > 5.70 | < 25% | – | – | – | – | – | – | – | –
2 | CCOC(=O)N1C2CCC1CC(N1CCC(N(C(C)=O)C3CCCC3)CC1)C2 (stereo not drawn) [Compound 15] | > 5.70 | 25 to 100% | > 5.70 | 25 to 100% | 5.30 to 5.70 | 25 to 100% | > 5.70 | 25 to 100% | – | – | – | – | – | – | – | –
3 | CCOC(=O)N1C2CCC1CC(N1CCC(N(CC(=O)CC)c3ccc(F)cc3)CC1)C2 (stereo not drawn) [Compound 25] | – | – | – | – | – | – | – | – | > 5.70 | < 5.30 | < 5.30 | < 5.30 | – | – | – | –
4 | CCOC(=O)N1C2CCC1CC(N1CCC(N(Cc3ccccc3)C(C)=O)CC1)C2 (stereo not drawn) [Compound 35] | > 5.70 | 25 to 100% | < 5.30 | 25 to 100% | < 5.30 | 25 to 100% | 5.30 to 5.70 | 25 to 100% | – | – | – | – | – | – | – | –
5 | CCOC(=O)N1C2CCC1CC(N1CCC(Nc3ccc(F)cc3)CC1)C2 (stereo not drawn) [Compound 64, 3-[4-(4-Fluoro-phenylamino)-piperidin-1-yl]-8-aza-bicyclo[3.2.1]octane-8-carboxylic acid ethyl ester] | 5.30 to 5.70 | 25 to 100% | < 5.30 | < 25% | < 5.30 | < 25% | < 5.30 | < 25% | – | – | – | – | – | – | – | –
6 | CCOC(=O)N1C2CCC1CC(N1CCC(N(CC(=O)CC)c3ccc(F)cc3)CC1)C2 (stereo not drawn) [Compound 20] | > 5.70 | 25 to 100% | < 5.30 | < 25% | < 5.30 | < 25% | < 5.30 | < 25% | – | – | – | – | – | – | – | –
7 | CCOC(=O)N1C2CCC1CC(N1CCC(N(C)c3ccc(F)cc3)CC1)C2 (stereo not drawn) [Compound 9] | < 5.30 | 25 to 100% | < 5.30 | < 25% | < 5.30 | < 25% | < 5.30 | 25 to 100% | – | – | – | – | – | – | – | –
8 | CCOC(=O)N1C2CCC1CC(N1CCC(N(C(C)=O)C3CCCCC3)CC1)C2 (stereo not drawn) [Compound 63] | > 5.70 | 25 to 100% | 5.30 to 5.70 | < 25% | 5.30 to 5.70 | 25 to 100% | > 5.70 | 25 to 100% | – | – | – | – | – | – | – | –
9 | CCOC(=O)N1C2CCC1CC(N1CCC(N(C(C)=O)C(C)C)CC1)C2 (stereo not drawn) [Compound 60] | 5.30 to 5.70 | 25 to 100% | < 5.30 | < 25% | < 5.30 | < 25% | < 5.30 | < 25% | – | – | – | – | – | – | – | –
10 | CCCN(C1CCN(C2CC3CCC(C2)N3C(=O)OCC)CC1)S(=O)(=O)c1ccc(C(F)(F)F)cc1 (stereo not drawn) [Compound 19] | < 5.30 | < 25% | < 5.30 | < 25% | < 5.30 | < 25% | < 5.30 | < 25% | – | – | – | – | – | – | – | –
11 | CCOC(=O)N1C2CCC1CC(N1CCC3(CCC(=O)N3c3ccccc3)CC1)C2 (stereo not drawn) [Compound 88, Ethyl 3-(2-oxo-1-phenyl-1,8-diazaspiro[4.5]decan-8-yl)-8-azabicyclo[3.2.1]octane-8-carboxylate] | > 5.70 | – | > 5.70 | – | < 5.30 | – | > 5.70 | – | – | – | – | – | ++ (key: +++: efficacy was calculated to be greater than 100%; ++: efficacy was calculated to be from 100% to 25%; +: efficacy was calculated to be less than 25%; −: no data was available) | ++ (key: +++: efficacy was calculated to be greater than 100%; ++: efficacy was calculated to be from 100% to 25%; +: efficacy was calculated to be less than 25%; −: no data was available) | + (key: +++: efficacy was calculated to be greater than 100%; ++: efficacy was calculated to be from 100% to 25%; +: efficacy was calculated to be less than 25%; −: no data was available) | ++ (key: +++: efficacy was calculated to be greater than 100%; ++: efficacy was calculated to be from 100% to 25%; +: efficacy was calculated to be less than 25%; −: no data was available)
12 | CCOC(=O)N1C2CCC1CC(N1CCC(N(c3ccc(F)cc3)S(C)(=O)=O)CC1)C2 (stereo not drawn) [Compound 71, 3-{4-[(4-Fluoro-phenyl)-methanesulfonyl-amino]-piperidin-1-yl}-8-aza-bicyclo[3.2.1]octane-8-carboxylic acid ethyl ester] | > 5.70 | 25 to 100% | < 5.30 | < 25% | < 5.30 | 25 to 100% | 5.30 to 5.70 | 25 to 100% | – | – | – | – | – | – | – | –
13 | CCOC(=O)N1C2CCC1CC(N1CCC(N(CC(C)C)S(=O)(=O)c3ccc(C(F)(F)F)cc3)CC1)C2 (stereo not drawn) [Compound 28] | < 5.30 | < 25% | < 5.30 | < 25% | < 5.30 | < 25% | < 5.30 | < 25% | – | – | – | – | – | – | – | –
14 | CCOC(=O)N1C2CCC1CC(N1CCC(N(C)c3ccccc3)CC1)C2 (stereo not drawn) [Compound 27] | > 5.70 | 25 to 100% | < 5.30 | < 25% | < 5.30 | < 25% | < 5.30 | < 25% | – | – | – | – | – | – | – | –

Reference: patent US7786308B2 (priority 2005, dated 2010)
